What follows are molecules tested against Bruton's Tyrosine Kinase (BTK), inactivated state (Homo sapiens (Human), UniProt Q06187) (assay: Bruton's Tyrosine Kinase (BTK) Inhibition TR-FRET (Time Resolved FRET) competition assay). Settings: BTK-Eu / Kinase Tracer 178 competition, incubated 18-24 h at 14° C.
Format: binding
Protocol: 10) Add 50 μL microscint-20 and count ^33P cpm on scintillation counter. • Calculate percent activity from raw data in cpm percent activity=(sample−bkg)/(total activity−bkg)×100 • Calculate IC50 from percent activity, using one-site dose response sigmoidal model y=A+((B−A)/(1+((x/C)^D)))) • x=cmpd conc, y=% activity, A=min, B=max, C=IC50, D=1 (hill slope) Bruton's Tyrosine Kinase (BTK) Inhibition TR-FRET (Time Resolved FRET) Assay
This BTK competition assay measures compound potency (IC50) for the inactivated state of Bruton's Tyrosine Kinase using FRET (Förster/Flouresence Resonance Energy Transfer) technology. The BTK-Eu complex was incubated on ice one hour prior to use at a starting concentration of 50 nM BTK-Bioease™: 10 nM Eu-streptavidin (Perkin-Elmer Catalog# AD0062). The assay buffer consisted of 20 mM HEPES (pH 7.15), 0.1 mM DTT, 10 mM MgCl2, 0.5 mg/ml BSA with 3% Kinase Stabilizer (Fremont Biosolutions, Catalog # STB-K02). After 1 h, the reaction mixture from above was diluted 10 fold in assay buffer to make 5 nM BTK: 1 nM Eu-Streptavidin complex (donor fluorophore). 18 μl of a mixture of 0.11 nM BTK-Eu and 0.11 nM Kinase Tracer 178 (Invitrogen, Catalog # PV5593) with BTK-Eu alone as no negative control, was then dispensed into 384-well flat bottom plates (Greiner, 784076). Compounds to be tested in assay were prepared as 10× concentrations and serial dilution in half-log increments was performed in DMSO so as to generate 10 point curves. To initiate the FRET reaction, compounds prepared as 10× stock in DMSO was added to the plates and the plates were incubated 18-24 h at 14° C.

Chain of Bruton's Tyrosine Kinase (BTK), inactivated state (Q06187 whole entry): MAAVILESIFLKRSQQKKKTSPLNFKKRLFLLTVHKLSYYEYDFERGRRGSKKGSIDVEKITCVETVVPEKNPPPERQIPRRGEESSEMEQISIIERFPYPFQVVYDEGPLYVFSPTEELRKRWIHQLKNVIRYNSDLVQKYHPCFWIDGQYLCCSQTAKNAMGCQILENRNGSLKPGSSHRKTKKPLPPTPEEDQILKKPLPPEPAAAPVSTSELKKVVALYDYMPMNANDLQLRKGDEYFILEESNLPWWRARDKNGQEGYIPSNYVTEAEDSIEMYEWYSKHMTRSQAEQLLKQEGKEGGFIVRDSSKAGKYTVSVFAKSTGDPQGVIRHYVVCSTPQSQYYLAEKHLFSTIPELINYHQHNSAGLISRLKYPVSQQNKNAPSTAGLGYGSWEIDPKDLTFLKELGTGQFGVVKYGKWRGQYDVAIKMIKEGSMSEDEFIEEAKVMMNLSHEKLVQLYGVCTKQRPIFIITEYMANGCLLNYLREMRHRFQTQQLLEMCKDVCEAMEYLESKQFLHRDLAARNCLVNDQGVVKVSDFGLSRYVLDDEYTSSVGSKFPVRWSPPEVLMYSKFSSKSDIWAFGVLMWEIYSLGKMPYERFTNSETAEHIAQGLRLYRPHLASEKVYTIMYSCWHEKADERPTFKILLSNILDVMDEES

SMILES | IC50
Cn1nc(-c2cccc(N3CCOc4cc(C(C)(C)C)ccc4C3=O)c2CO)cc(Nc2ccc(S(C)(=O)=O)cn2)c1=O [Compound 9, 8-tert-butyl-4-[2-(hydroxymethyl)-3-[1-methyl-5-[(5-methylsulfonylpyridin-2-yl)amino]-6-oxopyridazin-3-yl]phenyl]-2,3-dihydro-1,4-benzoxazepin-5-one] | 4.24 nM
Cn1cc(-c2cccc(NC(=O)N3Cc4ccc(Cl)cc4C3)c2CO)cc(Nc2ccc(C(=O)N3CCOCC3)cn2)c1=O [Compound 4, 5-chloro-N-[2-(hydroxymethyl)-3-[1-methyl-5-[[5-(morpholine-4-carbonyl)pyridin-2-yl]amino]-6-oxopyridin-3-yl]phenyl]-1,3-dihydroisoindole-2-carboxamide] | 31.9 nM
Cn1nc(-c2cccc(N3CCc4cc(C(C)(C)C)ncc4C3=O)c2CO)cc(Nc2ccc(C(=O)N3CCOCC3)cn2)c1=O [Compound 6, 6-tert-butyl-2-[2-(hydroxymethyl)-3-[1-methyl-5-[[5-(morpholine-4-carbonyl)pyridin-2-yl]amino]-6-oxopyridazin-3-yl]phenyl]-3,4-dihydro-2,7-naphthyridin-1-one] | 14.6 nM
Cn1cc(-c2cccc(N3CCc4cc(C(C)(C)C)ncc4C3=O)c2CO)cc(Nc2ccc(C(=O)N3CCOCC3)cn2)c1=O [Compound 5, 6-tert-butyl-2-[2-(hydroxymethyl)-3-[1-methyl-5-[[5-(morpholine-4-carbonyl)pyridin-2-yl]amino]-6-oxopyridin-3-yl]phenyl]-3,4-dihydro-2,7-naphthyridin-1-one] | 13.7 nM
Cn1nc(-c2cccc(-n3ccc4cc(C(C)(C)C#N)cc(F)c4c3=O)c2CO)cc(Nc2ccc(OC(C)(C)CO)cn2)c1=O [Compound 2, 2-[8-fluoro-2-[2-(hydroxymethyl)-3-[5-[[5-(1-hydroxy-2-methylpropan-2-yl)oxypyridin-2-yl]amino]-1-methyl-6-oxopyridazin-3-yl]phenyl]-1-oxoisoquinolin-6-yl]-2-methylpropanenitrile] | 1.12 nM
Cn1nc(-c2cccc(N3CCOc4cc(C(C)(C)CO)ccc4C3=O)c2CO)cc(Nc2ccc(S(C)(=O)=O)cn2)c1=O [Compound 3, 4-[2-(hydroxymethyl)-3-[1-methyl-5-[(5-methylsulfonylpyridin-2-yl)amino]-6-oxopyridazin-3-yl]phenyl]-8-(1-hydroxy-2-methylpropan-2-yl)-2,3-dihydro-1,4-benzoxazepin-5-one] | 52.6 nM
Cc1c(-c2cc(Nc3ccc(C(=O)N4CCOCC4)cn3)c(=O)n(C)n2)cccc1-n1ncc2cc(C(C)(C)C)cc(F)c2c1=O [Compound 7, 6-tert-butyl-8-fluoro-2-[2-methyl-3-[1-methyl-5-[[5-(morpholine-4-carbonyl)pyridin-2-yl]amino]-6-oxopyridazin-3-yl]phenyl]phthalazin-1-one] | 6.5 nM
Cn1nc(-c2cccc(N3CCc4cc(C(C)(C)C#N)ccc4C3=O)c2CO)cc(Nc2ccc(C(=O)N3CCOCC3)cn2)c1=O [Compound 1, 2-[2-[2-(hydroxymethyl)-3-[1-methyl-5-[[5-(morpholine-4-carbonyl)pyridin-2-yl]amino]-6-oxopyridazin-3-yl]phenyl]-1-oxo-3,4-dihydroisoquinolin-6-yl]-2-methylpropanenitrile] | 11.2 nM
Cn1nc(-c2cccc(N3CCOc4cc(C(C)(C)C)ccc4C3=O)c2CO)cc(Nc2ccc(C(=O)N3CCOCC3)cn2)c1=O [Compound 8, 8-tert-butyl-4-[2-(hydroxymethyl)-3-[1-methyl-5-[[5-(morpholine-4-carbonyl)pyridin-2-yl]amino]-6-oxopyridazin-3-yl]phenyl]-2,3-dihydro-1,4-benzoxazepin-5-one] | 1.77 nM
